Results from US10787441B2, “Hepatitis C virus inhibitors” (priority 2016, dated 2020).
Read-outs that look alike come from different tables or passages of the source.

Columns and labels:
Assay type in all cases: cell-based, Hepatitis C virus
[1] = test system: HCV genotype 1a H77 strain subgenomic luciferase replicon; assay: HCV replicon assay, genotype 1a
Experimental: (§1) The HCV luciferase replicon assay measures the ability of a test compound to inhibit HCV replication in cell culture after 3 days of treatment in a human hepatoma cell line (Huh-7) bearing an HCV replicon containing a luciferase-neomycin phosphotransferase fusion gene. The inhibition of HCV replication was measured by quantification of luciferase protein expression. Briefly, Huh-7 cells containing either the HCV genotype 1a H77 strain or genotype 1b Con1 strain subgenomic luciferase replicon (H1a-luc or Zluc, respectively) were grown in DMEM containing glucose, L-glutamine and sodium pyruvate, 10% fetal bovine serum (FBS), 100 IU/mL penicillin, 100 μg/mL streptomycin, 2 mM GlutaMAX, non-essential amino acids and 0.25 (H1a-luc) or 0.5 (Zluc) mg/mL G418. GlutaMAX was obtained from Invitrogen, Corp.; all other media reagents were obtained from Mediatech, Inc. For dose-response testing, the cells were seeded in 96-well plates at 1×10^4 (H1a-luc) or 7.5×10^3 (Zluc) cells/well in a volume of 50 μL, and incubated at 37° C./5% CO2. Three hours after plating, 50 μL of ten 5-fold serial dilutions of compound were added, and cell cultures were incubated at 37° C./5% CO2 for 72 hours. In all cases, Huh-7 cells lacking the HCV replicon served as negative control. To assess luciferase expression, the media/compound was removed from the plates and ONE-glo Luciferase assay reagent (Promega) was added to each well. The assay plates were shaken for 3 minutes at room temperature and luciferase activity for each well was measured with a 1 sec read time on the Victor^3V multilabel counter using a 700 nm cut-off filter (Perkin Elmer). EC50 values were calculated from dose response curves from the resulting best-fit equations determined by Microsoft Excel and XLfit 4.1 software.

[2] = test system: HCV 1aY93H mutant replicon; assay: HCV replicon assay, genotype 1a Y93H mutant
Experimental: General procedure: The luciferase replicon transient transfection assay measures the ability of a test compound to inhibit the replication of a transiently-transfected HCV luciferase-bearing wild-type or mutant replicon in cured human hepatoma cells (Huh7.5). The inhibition of HCV replication was measured by quantification of luciferase protein expression. This assay has been validated using a panel of genotype 1a and 1b replicons bearing mutations known to be associated with resistance to BMS-790052. Briefly, subconfluent Huh7.5 cells were electroporated with 10 μg of wild-type or mutant luciferase-bearing HCV replicon RNA. The cells were then seeded in 96-well opaque white plates at 3×10^4 cells/well in 150 μL/well and incubated for 4 hrs at 37° C./5% CO2. Ten 1:5 serial dilutions of each test compound were made in media (DMEM containing glucose, L-glutamine and sodium pyruvate, 10% fetal bovine serum, 100 IU/mL penicillin, 100 μg/mL streptomycin, 2 mM GlutaMAX, and 1×MEM non-essential amino acids (Mediatech, Inc. and Invitrogen Corp.)) at concentrations that were 4× higher than the final concentrations to be tested and 50 μL/well was added to the transfected cells. Untreated, mock-transfected cells served as a negative control of luciferase expression. The plates were incubated at 37° C./5% CO2 for 4 days whereupon the media was removed and 50 μL of ONE-glo luciferase substrate (Promega) was added to each well. The plates were agitated on a rotating platform at room temperature for 3 min and read in a Victor^3V microplate reader (Perkin-Elmer) using a 700 nm cut-off filter with a 1 sec read time. EC50 values were calculated from dose response curves from the resulting best-fit equations determined by Microsoft Excel and XLfit 4.1 software.

HCV 2b = assay: HCV replicon assay, genotype 2b
[3] = test system: HCV genotype 3a NS5A within the 1b-replicon; assay: HCV replicon assay, genotype 3a (NS5A intergenotypic stable cell line)
Description: The nucleotide sequences of the NS5A region of genotype 2a (GenBank Accession # AB047639), genotype 3a (GenBank Accession # D17763), and genotype 4a (GenBank Accession # DQ418788) were synthesized by an outside vendor. The NS5A region of each of these genotypes included the first 11 amino acids of the protease recognition sequence of genotype 1b, as well as the last 10 amino acids of genotype 1b. The NS5A gene cassettes were excised with site specific restriction endonucleases and ligated into a ZS11-luciferase genotype 1b backbone (backbone contains the genotype 1b NS3 protease, NS4a, NS4b, and NS5b coding regions) with similarly cut restriction enzyme sites. Thus, the newly constructed plasmid contains a genotype 2a-, 3a- or 4a-specific NS5A gene within the 1b-replicon.
These new intergenotypic plasmids were used to establish stable cell lines. RNA was generated from the NS5A intergenotypic plasmids and used in conjunction with a lipofectin reagent to transfect a cured Huh7 cell line. Transfected cells were selected for with G418. After selection has occurred the stable cell lines were propagated, tested for luciferase activity, and RT-PCR with genotype specific primers (either 1a, 2a, 3a, or 4a). Stable cell lines containing the intergenotypic replicon were then fully sequenced and analyzed for proper expression of NS3, NS5A and NS5B proteins.
Drug titration analysis was performed using the luciferase replicon assay described herein.
as §1

[4] = Hepatitis C virus, read-out: 1a IC50 (nM), HCV genotype 1a
[5] = Hepatitis C virus, read-out: 1aY93H IC50 (nM), HCV genotype 1a, Y93H mutant
[6] = read-out: 2b IC50, HCV genotype 2b
[7] = Hepatitis C virus, read-out: 3a IC50 (nM), HCV genotype 3a
[8] = read-out: 1a IC50, HCV genotype 1a
[9] = read-out: 1aY93H IC50, HCV genotype 1a, Y93H mutant
[10] = read-out: 3a IC50, HCV genotype 3a
[11] = Hepatitis C virus, read-out: 2b IC50 (nM), HCV genotype 2b

Row | SMILES | IC50 [1, 4] [nM] | IC50 [2, 5] [nM] | IC50 (HCV 2b; [11]) [nM] | other results
1 | CCC1c2ccc(-c3cnc([C@@H]4CCCN4C(=O)[C@@H](NC(=O)OC)C(C)C)[nH]3)cc2Oc2ccc3cc(-c4cnc([C@@H]5CCCN5C(=O)[C@@H](NC(=O)OC)C(C)C)[nH]4)ccc3c21 (single isomer, unassigned) [Compound 5] | 0.005 | 11.7 | – | IC50 (HCV 2b; [6]): 0.784 nM; IC50 [3, 7]: 1.08 nM
2 | CCC1c2ccc(-c3cnc([C@@H]4CCCN4C(=O)[C@@H](NC(=O)OC)C(C)C)[nH]3)cc2Oc2ccc3cc(-c4cnc([C@@H]5CCCN5C(=O)[C@@H](NC(=O)OC)C(C)C)[nH]4)ccc3c21 (single isomer, unassigned) [Compound 6] | – | – | – | IC50 [1, 8]: 0.0027 nM; IC50 [2, 9]: 15 nM; IC50 (HCV 2b; [6]): 12.8 nM; IC50 [3, 10]: 1.72 nM
3 | CCC1c2ccc(-c3cnc([C@@H]4CCCN4C(=O)[C@@H](NC(=O)OC)C4CCOCC4)[nH]3)cc2Oc2ccc3cc(-c4cnc([C@@H]5CCCN5C(=O)[C@@H](NC(=O)OC)C5CCOCC5)[nH]4)ccc3c21 (single isomer, unassigned) [Compound 14] | – | – | – | IC50 [1, 8]: 0.0042 nM; IC50 [2, 9]: 0.221 nM; IC50 [3, 10]: 0.034 nM
4 | O=c1c2ccc(-c3cnc([C@@H]4CC(F)CN4)[nH]3)cc2oc2ccc3cc(-c4cnc([C@@H]5C[C@@H](F)CN5)[nH]4)ccc3c12 (stereo in doubt) [Compound 18, 3-{2-[(2S,4R)-4-fluoropyrrolidin-2-yl]-1H-imidazol-5-yl}-9-{2-[(2S,4S)-4-fluoropyrrolidin-2-yl]-1H-imidazol-5-yl}-12H-benzo[a]xanthen-12-one] | 208 | 147 | – | –
5 | O=c1c2cc(-c3cnc([C@@H]4CC(F)CN4)[nH]3)ccc2oc2c(F)c3ccc(-c4cnc([C@@H]5CC(F)CN5)[nH]4)cc3cc12 (stereo in doubt) [Compound 19, 6-fluoro-2,9-bis{2-[(2S,4S)-4-fluoropyrrolidin-2-yl]-1H-imidazol-5-yl}-12H-benzo[b]xanthen-12-one] | 745 | 1390 | – | –
6 | CC(C)(C)NC(=O)N1CC(F)C[C@H]1c1ncc(-c2ccc3c(ccc4oc5cc(-c6cnc([C@@H]7C[C@@H](F)CN7C(=O)NC(C)(C)C)[nH]6)ccc5c(=O)c43)c2)[nH]1 (stereo in doubt) [Compound 21, (2S,4R,2′S,4′S)-2,2′-[(12-oxo-12H-benzo[a]xanthene-3,9-diyl)bis(1H-imidazole-5,2-diyl)]bis(N-tert-butyl-4-fluoropyrrolidine-1-carboxamide)] | 63.1 | 96.2 | 505 | –
7 | CC(C)(C)OC(=O)N1CC(F)C[C@H]1c1ncc(-c2ccc3c(ccc4oc5cc(-c6cnc([C@@H]7C[C@@H](F)CN7C(=O)OC(C)(C)C)[nH]6)ccc5c(=O)c43)c2)[nH]1 (stereo in doubt) [Compound 22, di-tert-butyl (2S,4R,2′S,4′S)-2,2′-[(12-oxo-12H-benzo[a]xanthene-3,9-diyl)bis(1H-imidazole-5,2-diyl)]bis(4-fluoropyrrolidine-1-carboxylate)] | 291 | 717 | – | –
8 | CC(C)(C)NC(=O)N1CC(F)C[C@H]1c1ncc(-c2ccc3c(F)c4oc5ccc(-c6cnc([C@@H]7CC(F)CN7C(=O)NC(C)(C)C)[nH]6)cc5c(=O)c4cc3c2)[nH]1 (stereo in doubt) [Compound 23, (2S,4S,2′S,4′S)-2,2′-[(6-fluoro-12-oxo-12H-benzo[b]xanthene-2,9-diyl)bis(1H-imidazole-5,2-diyl)]bis(N-tert-butyl-4-fluoropyrrolidine-1-carboxamide)] | 53.5 | 436 | ≥ 1000 | –
9 | CC(C)(C)OC(=O)N1CC(F)C[C@H]1c1ncc(-c2ccc3c(F)c4oc5ccc(-c6cnc([C@@H]7CC(F)CN7C(=O)OC(C)(C)C)[nH]6)cc5c(=O)c4cc3c2)[nH]1 (stereo in doubt) [Compound 24, di-tert-butyl (2S,4S,2′S,4′S)-2,2′-[(6-fluoro-12-oxo-12H-benzo[b]xanthene-2,9-diyl)bis(1H-imidazole-5,2-diyl)]bis(4-fluoropyrrolidine-1-carboxylate)] | 425 | 2460 | – | –
10 | COC(=O)N[C@H](C(=O)N1CCC[C@@H]1c1ncc(-c2ccc3oc4c(ccc5cc(-c6cnc([C@H]7CCCN7C(=O)[C@H](NC(=O)OC)C(C)C)[nH]6)ccc54)c(=O)c3c2)[nH]1)C(C)C [Compound 1, methyl [(1R)-1-({(2R)-2-[5-(9-{2-[(2R)-1-{(2S)-2-[(methoxycarbonyl)amino]-3-methylbutanoyl}pyrrolidin-2-yl]-1H-imidazol-5-yl}-7-oxo-7H-benzo[c]xanthen-3-yl)-1H-imidazol-2-yl]pyrrolidin-1-yl}carbonyl)-2-methylpropyl]carbamate] | 0.0204 | 66 | – | –
11 | COC(=O)N[C@H](C(=O)N1CCC[C@H]1c1ncc(-c2ccc3c(c2)C(C)c2ccc4cc(-c5cnc([C@@H]6CCCN6C(=O)[C@@H](NC(=O)OC)C(C)C)[nH]5)ccc4c2O3)[nH]1)C(C)C (stereo partly drawn) [Compound 4, methyl [(1S)-1-({(2S)-2-[5-(3-{2-[(2S)-1-{(2S)-2-[(methoxycarbonyl)amino]-3-methylbutanoyl}pyrrolidin-2-yl]-1H-imidazol-5-yl}-7-methyl-7H-benzo[c]xanthen-9-yl)-1H-imidazol-2-yl]pyrrolidin-1-yl}carbonyl)-2-methylpropyl]carbamate] | 0.0057 | 48.8 | – | –
12 | COC(=O)N[C@H](C(=O)N1CCC[C@H]1c1ncc(-c2ccc3c(c2)Oc2ccc4cc(-c5cnc([C@@H]6CCCN6C(=O)[C@@H](NC(=O)OC)C(C)C)[nH]5)ccc4c2C3(C)C)[nH]1)C(C)C [Compound 7, methyl [(1S)-1-({(2S)-2-[5-(3-{2-[(2S)-1-{(2S)-2-[(methoxycarbonyl)amino]-3-methylbutanoyl}pyrrolidin-2-yl]-1H-imidazol-5-yl}-12,12-dimethyl-12H-benzo[a]xanthen-9-yl)-1H-imidazol-2-yl]pyrrolidin-1-yl}carbonyl)-2-methylpropyl]carbamate] | 0.0029 | 17.8 | 11 | –
13 | CCC1(CC)c2ccc(-c3cnc([C@@H]4CCCN4C(=O)[C@H](NC(=O)OC)C(C)C)[nH]3)cc2Oc2ccc3cc(-c4cnc([C@@H]5CCCN5C(=O)[C@@H](NC(=O)OC)C(C)C)[nH]4)ccc3c21 [Compound 8, methyl [(1R)-1-({(2S)-2-[5-(12,12-diethyl-3-{2-[(2S)-1-{(2S)-2-[(methoxycarbonyl)amino]-3-methylbutanoyl}pyrrolidin-2-yl]-1H-imidazol-5-yl}-12H-benzo[a]xanthen-9-yl)-1H-imidazol-2-yl]pyrrolidin-1-yl}carbonyl)-2-methylpropyl]carbamate] | 0.002 | 4.1 | 3.33 | IC50 [3, 7]: 0.581 nM
